From ChEMBL document CHEMBL5126545, “Development of inhibitors targeting glycogen synthase kinase-3β for human diseases: Strategies to improve selectivity” (Eur J Med Chem, 2022)
*1 amine or outer side, *2 acyl side, *3 side chain or, on linkers, in order; H or OH if unused. Where a SMILES comes first, the peptide text is derived from it. [ ]: non-standard residue; d: D form. The star is where a group is joined. X1 = C[C@H](N[*:1])C(=O)C1CCC[C@H]1C(=O)[*:2]; Myristoyl = CCCCCCCCCCCCCC(=O)*

Key:
SH-SY5Y = assay: Neuroprotective activity against human SH-SY5Y cells pretreated for 1 hr followed by muMAbeta42 measured after 72 hrs; assay type: functional, cell-based
[1] = biological target: T1, Glycogen synthase kinase-3 beta (Homo sapiens, UniProt P49841); assay: Inhibition of GSK-3beta (unknown origin) using peptide YRRAAVPPSPSLSRHSSPHQ(pS)EDEEE as substrate incubated for 5 to 60 mins by ADP-Glo kinase assay
[2] = biological target: T1, Glycogen synthase kinase-3 beta; assay: Inhibition of human recombinant GSK3-beta
[3] = biological target: T1, Glycogen synthase kinase-3 beta; assay: Inhibition of GSK-3beta (unknown origin)
[4] = biological target: T1, Glycogen synthase kinase-3 beta; assay: Inhibition of GSK3-beta (unknown origin) by Kinase-Glo Max assay kit
[5] = biological target: T1, Glycogen synthase kinase-3 beta; assay: Inhibition of GSK-3beta (unknown origin) using biotin-labelled IRS-1 peptide as substrate incubated for 15 mins by ELISA based assay
[6] = Inhibition of GSK-3beta (unknown origin) using GS-1 as substrate incubated for 20 mins
[7] = Inhibition of recombinant rabbit GSK-3beta using peptide YRRAAVPPSPSLSRHSSPHQ(pS)EDEEE as substrate incubated for 10 mins; design: species or system Oryctolagus cuniculus
Protein kinase C (PKC) = assay: Inhibition of rat brain PKC using peptide PANKTPPKSPGEPAK as substrate incubated for 20 mins in presence of phosphatidyl serine
[8] = Inhibition of bovine heart PKA using stathmin as substrate incubated for 20 mins by liquid scintillation counter analysis; design: species or system Bos taurus
[9] = Inhibition of bovine brain CK2 using stathmin as substrate; design: species or system Bos taurus
[10] = Inhibition of CDK-1/cyclin B (unknown origin) using histone H1 as substrate incubated for 20 mins by liquid scintillation counter analysis; design: species or system Homo sapiens

T1 sequence (P49841 whole entry): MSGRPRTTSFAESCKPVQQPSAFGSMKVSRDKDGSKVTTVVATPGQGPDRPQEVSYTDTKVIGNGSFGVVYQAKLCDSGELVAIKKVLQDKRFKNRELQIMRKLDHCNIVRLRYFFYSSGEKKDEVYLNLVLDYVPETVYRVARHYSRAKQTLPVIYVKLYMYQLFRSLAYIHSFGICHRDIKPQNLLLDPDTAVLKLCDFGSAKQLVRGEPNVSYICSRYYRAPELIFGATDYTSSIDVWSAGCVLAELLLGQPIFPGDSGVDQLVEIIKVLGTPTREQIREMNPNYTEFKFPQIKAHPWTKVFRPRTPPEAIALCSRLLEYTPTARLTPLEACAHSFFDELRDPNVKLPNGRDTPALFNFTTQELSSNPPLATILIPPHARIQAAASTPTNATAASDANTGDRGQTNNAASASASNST

Compound `O=c1cc(-c2ccc(O)c(O)c2)oc2cc(O)c([C@@H]3O[C@H](CO)[C@@H](O)[C@H](O)[C@H]3O)c(O)c12` [ISOORIENTIN] has an EC50 (SH-SY5Y) of 47 µM.

`COc1ccc(-c2cc(=O)c3c(OC)c([C@@H]4O[C@H](C(=O)N[C@H](C)C(F)(F)F)[C@@H](O)[C@H](O)[C@H]4O)c(OC)cc3o2)cc1OC` showed an EC50 (SH-SY5Y) of 9 µM and an IC50 [1] of 0.6 µM.

In the case of `COc1cc2c(c(OC)c1OC)-c1c(cc3c(c1OC)OCO3)C[C@H](C)[C@H](C)C2` [WUWEIZISU B], the IC50 [2] is reported as 0.073 µM.

For `CC(C)Oc1cccc(-c2ccc3[nH]nc(C(=O)NCC4CCOCC4)c3c2)c1`, the IC50 [3] was 0.004 µM.

With `COc1ccc(-c2cc(=O)c3c(OC)c([C@@H]4O[C@H](C(=O)N[C@@H](C)C(F)(F)F)[C@@H](O)[C@H](O)[C@H]4O)c(OC)cc3o2)cc1OC` the IC50 [1] was 2 µM.

In the case of `Cn1cc(C2=C(c3coc4ccccc34)C(=O)NC2=O)c2cc(F)ccc21`, the IC50 [3] is reported as 0.0004 µM.

In the case of `FC(F)(F)c1ccc(/C=N/Nc2nnc3n2N=C(c2ccc(Cl)cc2)CS3)cc1`, the IC50 [4] is reported as 0.883 µM.

`O=C1c2ccccc2-c2onc3c(N4CCN(c5ccc(O)cc5)CC4)cc(NCCP(=O)(O)O)c1c23` showed an IC50 [5] of 1 µM.

For `O=C(O)c1ccc(N2CCN(c3cc(NCCP(=O)(O)O)c4c5c(onc35)-c3ccccc3C4=O)CC2)cc1`, the IC50 [5] was 1 µM.

With `COc1ccc(N2CCN(c3cc(NCCC(=O)O)c4c5c(onc35)-c3ccccc3C4=O)CC2)cc1` the IC50 [5] was 18 µM.

Compound `CCn1sc(=O)n(CC)c1=O` has an IC50 [6] of 25 µM.

Work on `CCCCCCCCCCCCCC(=O)NCC(=O)N[C@@H](CCCCN)C(=O)N[C@@H](CCC(=O)O)C(=O)N[C@@H](C)C(=O)C1CCC[C@H]1C(=O)N1CCC[C@H]1C(=O)N[C@@H](C)C(=O)N1CCC[C@H]1C(=O)N1CCC[C@H]1C(=O)N[C@@H](C)C(=O)N[C@@H](CO)C(=O)N1CCC[C@H]1C(=O)N1CCC[C@H]1C(N)=O` (some centres undefined) (Myristoyl-GKE[X1]PAPPASPP-NH2) yielded an IC50 [7] of 40 µM.

Work on `O=C(CCl)c1cc(Cl)c(Cl)s1` yielded an IC50 [3] of 3 µM.

For `Cn1sc(=O)n(Cc2ccccc2)c1=O`, the IC50 (Protein kinase C (PKC)) was > 100 µM, the IC50 [8] was > 100 µM and the IC50 [9] was > 100 µM. For the same compound, the IC50 [10] was > 100 µM.

In the case of `Cc1ccc(C(=O)CCl)s1`, the IC50 [3] is reported as > 100 µM.

For `COc1ccc(-c2cc(=O)c3c(OC)c([C@@H]4O[C@H](C(=O)NC(C)C)[C@@H](O)[C@H](O)[C@H]4O)c(OC)cc3o2)cc1OC`, the IC50 [1] was 5 µM.

`O=C(O)CCNc1cc(N2CCN(c3ccc(F)cc3)CC2)c2noc3c2c1C(=O)c1ccccc1-3` showed an IC50 [5] of 8 µM.

Compound `CC(C)Oc1cccc(-c2ccc3cnc(C(=O)NCC4CCOCC4)n3c2)c1` has an IC50 [3] of 0.072 µM.

`CCn1sc(=O)n(CC)c1=S` showed an IC50 [6] of 20 µM.

With `C[S+]([O-])CCCCCCN=C=S` (centres undefined) the IC50 [3] was 70 µM.

`COc1ccc(-c2cc(=O)c3c(OC)c([C@@H]4O[C@H](C(=O)NCc5ccccc5)[C@@H](O)[C@H](O)[C@H]4O)c(OC)cc3o2)cc1OC` showed an IC50 [1] of 16 µM.

With `Nc1nccc(CNC(=O)c2ccc3c(c2)/C(=C/Cc2cccc(C(=O)O)c2)C(=O)N3)n1` the IC50 [3] was 0.003 µM.

In the case of `CN(c1ncnc2[nH]c3cc(Cl)ccc3c12)C1CCCN(C(=O)CC#N)C1` (centres undefined), the IC50 [3] is reported as 2 µM.

With `Cn1sc(=O)n(-c2cccc3ccccc23)c1=O` the IC50 [6] was 3 µM.

`COc1cc2c(c(OC)c1OC)-c1c(cc3c(c1OC)OCO3)C[C@@H](C)[C@@H](C)C2` [KADSURANIN] showed an IC50 [2] of 0.081 µM.
